Source: patent publication US9067857B2, “Fluorine-containing aromatic compound and manufacturing method therefor” (Asahi Glass Company, Limited, priority 2012, dated 2015)

Test: Solubility test of compound in various solvents (20 mg in 10 g solvent, visually judged)
Assay type: physicochemical
Conditions: 20 mg sample in 10 g solvent at room temperature (0.2% by mass)
Procedure: <Solubility Test of Compound>
In order to investigate applicability of the compound (e) obtained in the above Example 4 to a wet process, a solubility test of the compound in various solvents was conducted. In addition, a solubility test of anthracene was also conducted as Reference Example 2.
Specifically, 20 mg of a sample was weighed and it was visually judged whether it dissolves in 10 g of a solvent at room temperature (0.2% by mass).
In Table 3, “Yes” represents “soluble” and “No” represents “insoluble”.

| SMILES | Solubility in 1,2-Dichlorobenzene | Solubility in Chloroform | Solubility in Cyclohexane | Solubility in Hexane |
| --- | --- | --- | --- | --- |
| c1ccc2cc3ccccc3cc2c1 [Anthracene, anthracene] | Yes (“Yes” represents “soluble”) | Yes (“Yes” represents “soluble”) | No (“No” represents “insoluble”) | No (“No” represents “insoluble”) |
| FC(F)(F)C(F)(F)C(F)(F)C(F)(F)C(F)(F)C(F)(F)c1c2ccccc2c(C(F)(F)C(F)(F)C(F)(F)C(F)(F)C(F)(F)C(F)(F)F)c2ccccc12 [Compound (e), 9,10-bis(perfluorohexyl)anthracene] | Yes (“Yes” represents “soluble”) | Yes (“Yes” represents “soluble”) | Yes (“Yes” represents “soluble”) | Yes (“Yes” represents “soluble”) |
